We go through 21 molecules from patent publication US20060128702A1, “Heterocyclic and bicyclic compounds, compositions and methods” (priority 2004, published 2006).

Series [1] deals with IL-6 (interleukin-6) expression. The experiment in a line: IL-6 ELISA (inflammation assay in HAECs). Format: cell-based. The conditions noted are these: endothelial cell media; TNFα (0.5 ng/mL) or glycated human serum albumin (300 μg/mL), 18-24 h; read-out: IC50, IL-6 enzyme-linked immunosorbent assay. Here is the method: (§1) For inflammation assays, human aortic endothelial cells (HAECs) in 96 well plates were washed once with treatment medium (basal medium containing 1% FBS). Cells were treated with an inflammatory agent such as TNFα (0.5 ng/mL) or glycated human serum albumin (US Biologicals) as source of advanced glycation end products (AGEs) (300 μg/mL) for 18-24 h in the presence or absence of specified amount of compound. Cell supernatants were collected and used for measuring MCP-1 (monocyte chemoattractant protein 1) or IL-6 (interleukin-6) expression by ELISA. Cell layers were washed and used for determining vascular cell adhesion molecule-1 (VCAM-1) expression.
IL-6 expression in endothelial cell media were determined using DuaSet IL-6 ELISA kit from R&D Systems (Cat No DY206) as described by the manufacturer. Mouse anti-human IL-6 antibody was used as the capture antibody and biotinylated goat anti-human IL-6 was used as detection antibody. Culture medium was incubated with the capture antibody (in 96-well plate) for 2 h at room temperature. Wells were washed three times with wash buffer (0.05% Tween-20 in PBS) followed by incubation with detection antibody for 2 h at room temperature. The wells were then incubated with streptavidin HRP and color development was read at 450 nm in a microplate reader.
On the technique in general: ELISA stands for enzyme-linked immunosorbent assay.

The test system of series [2] is MCP-1 (monocyte chemoattractant protein 1) expression. The experiment in a line: MCP-1 ELISA (inflammation assay in HAECs). It counts as cell-based. The conditions noted are these: Endothelial cell; HAEC supernatants; TNFα (0.5 ng/mL) or glycated human serum albumin (300 μg/mL), 18-24 h; read-out: IC50, MCP-1 enzyme-linked immunosorbent assay. Here is the method: as §1
MCP-1 ELISA was carried out using Quantikine Human MCP-1 kit as described by the manufacturer (R&D Systems, Inc.). Mouse anti-human MCP-1 was used as the capture antibody and HRP (horse radish peroxidase)-conjugated goat anti-human MCP-1 antibody was used as detection antibody. Culture medium was incubated with the capture antibody (in 96-well plate) for 2 h at room temperature. Wells were washed three times with wash buffer (0.05% Tween-20 in PBS) followed by incubation with detection antibody for 2 h at room temperature. Color development was read at […] in a microplate reader.

For series [3], the system named is human aortic smooth muscle cells. The experiment in a line: Smooth muscle cell proliferation assay. It counts as cell-based. To be noted: human aortic SMC, growth medium containing serum, 24 h post treatment; for IC50: read-out: Effect: concentration giving 50% inhibition of smooth muscle cell proliferation. Here is the method: Primary cultures of human aortic smooth muscle cells were obtained from Clonetics. SMC were initially grown in T-75 flasks prior to seeding in 96 well plates. The 96-well plates were seeded with 4000 cells/well. The following day cells were washed with serum free medium and left in serum free media for 24 hours for serum starvation. The next day cells received growth medium containing serum with or without compound. The 24 h post treatment cell proliferation was assayed either assessing the incorporation of radiolabeled thymidine to DNA or using a non-radioactive cell proliferation kit from Promega (CellTiter AQ).

Series [4] has as its system vascular cell adhesion molecule-1 (VCAM-1) expression. The experiment in a line: VCAM-1 ELISA (inflammation assay in HAECs). To be noted: HAEC cell layers; TNFα (0.5 ng/mL) or glycated human serum albumin (300 μg/mL), 18-24 h; read-out: IC50, VCAM-1 enzyme-linked immunosorbent assay. Format: cell-based. Here is the method: as §1
The cells were fixed cells with 100% methanol for 10 min at room temperature. The methanol was removed and the plate was air-dried. 100 μl of 1:1000 diluted primary antibody (polyclonal goat anti-human VCAM-1—R&D Systems #BBA19) was then added and incubated for 2 h at 37 C. The cells were washed with PBS and 100 μl of 1:5000 dilution of secondary antibody (rabbit anti-goat IgG-HRP—Zymed #81-1620) was added and incubated for 1 h at room temperature. Cells were washed and 100 μl of substrate solution (R&D Systems# DY999) was added and incubated for 20 min in the dark at room temp. 50 μl of stop solution (2N sulfuric acid) was added to the wells and absorbency at 450 nm was noted.

The melting point is the temperature, or range, at which the solid turns liquid.

`COc1ccc(Nc2cc(-c3ccncc3)nc3ccccc23)cc1Cl` [E 1, (3-Chloro-4-methoxy-phenyl)-(2-pyridin-4-yl-quinolin-4-yl)-amine] returned a melting point of 280 to 282 °C.

The molecule `COc1ccc(Nc2nc(-c3ccncc3)nc3ccccc23)cc1Cl` [E 2, (3-Chloro-4-methoxy-phenyl)-(2-pyridin-4-yl-quinazolin-4-yl)-amine] registered a melting point of more than 220 °C.

`Oc1ccc(-c2nc(-c3ccncc3)nc3ccccc23)c(O)c1` [E 3, 4-(2-Pyridin-4-yl-quinazolin-4-yl)-benzene-1,3-diol] came in with a melting point of 280 to 282 °C.

The molecule `Oc1ccc(-c2nc(-c3ccccc3)nc3ccccc23)c(O)c1` [E 4, 4-(2-Phenyl-quinazolin-4-yl)-benzene-1,3-diol] showed a melting point of 178 to 180 °C.

In turn, `COc1ccc(Nc2cc(-c3ccccc3)nc3ccccc23)cc1Cl` [E 5, (3-Chloro-4-methoxy-phenyl)-(2-phenyl-quinolin-4-yl)-amine] returned a melting point of 272 to 274 °C. For the same molecule, the IC50 in series [1] came out at 2 µM.

As for `COc1ccc(Nc2nc(-c3ccc(F)cc3)cc3ccc(C)cc23)cc1Cl` [E 6, (3-Chloro-4-methoxy-phenyl)-[3-(4-fluoro-phenyl)-7-methyl-isoquinolin-1-yl]-amine], the melting point fell in the range of 154 to 156 °C.

The molecule `COc1ccc(Nc2nc(-c3ccc(F)cc3)cc3ccc(C)cc23)cc1F` [E 7, (3-Fluoro-4-methoxy-phenyl)-[3-(4-fluoro-phenyl)-7-methyl-isoquinolin-1-yl]-amine] registered a melting point of 163 to 165 °C. The IC50 in series [2] came to 5 µM.

The molecule `COc1ccc(Nc2cc(-c3ccc(F)cc3)nc3ccccc23)cc1Cl` [E 8, (3-Chloro-4-methoxy-phenyl)-[2-(4-fluoro-phenyl)-quinolin-4-yl]-amine] came in with a melting point of 260 °C. In addition, the inhibition at 1 µM in series [3] (at 1 μM, read-out: Effect: % inhibition of smooth muscle cell proliferation) worked out at 77%. Besides, the IC50 in series [2] was 2.1 µM. Moreover, the IC50 in series [4] amounted to 3.6 µM.

`c1ccc(-c2cc(-n3ccc4ccccc43)c3ccccc3n2)cc1` [E 9, 4-Indol-1-yl-2-phenyl-quinoline] registered a melting point of 100 to 102 °C.

`Clc1ccc2c(ccn2-c2cc(-c3ccccc3)nc3ccccc23)c1` [E 10, 4-(5-Chloro-indol-1-yl)-2-phenyl-quinoline] gave a melting point of 148 to 150 °C.

For the molecule `Fc1ccc(-c2cc(-n3ccc(C(F)(F)F)n3)c3ccccc3n2)cc1` [E 11, 2-(4-Fluoro-phenyl)-4-(3-trifluoromethyl-pyrazol-1-yl)-quinoline], in series [3], the IC50 was determined as 1 µM.

In the case of `COc1cc(Nc2cc(-c3ccc(F)cc3)nc3ccccc23)ccc1Cl` [E 13, (4-Chloro-3-methoxy-phenyl)-[2-(4-fluoro-phenyl)-quinolin-4-yl]-amine], the melting point was in the range of 274 to 276 °C. Also, the IC50 in series [2] came to 5 µM. Besides, the IC50 in series [4] is 3.5 µM.

The molecule `FC(F)(F)c1ccn(-c2cc(-c3ccc4c(c3)OCO4)nc3ccccc23)n1` [E 15, 2-Benzo[1,3]dioxol-5-yl-4-(3-trifluoromethyl-pyrazol-1-yl)-quinoline] gave a melting point of 98 to 100 °C. The IC50 in series [2] was determined as 4.2 µM. The IC50 in series [4] stood at 5 µM.

In turn, `CSc1ccc(-c2cc(-n3ccc(C(F)(F)F)n3)c3ccccc3n2)cc1` [E 16, 2-(4-Methylsulfanyl-phenyl)-4-(3-trifluoromethyl-pyrazol-1-yl)-quinoline] registered a melting point of 116 to 118 °C. Also, in series [3], the IC50 stood at 1.16 µM.

For `CS(=O)(=O)c1ccc(-c2cc(-n3ccc(C(F)(F)F)n3)c3ccccc3n2)cc1` [E 17, 2-(4-Methanesulfonyl-phenyl)-4-(3-trifluoromethyl-pyrazol-1-yl)-quinoline], the melting point lay in the range of 194 to 196 °C.

`FC(F)(F)Oc1ccc(-c2cc(-n3ccc(C(F)(F)F)n3)c3ccccc3n2)cc1` [E 18, 2-(4-Trifluoromethoxy-phenyl)-4-(3-trifluoromethyl-pyrazol-1-yl)-quinoline] displayed a melting point of 108 to 110 °C. The IC50 in series [3] is 2.33 µM.

As to `FC(F)(F)Oc1ccc(Nc2cc(-n3ccc(C(F)(F)F)n3)c3ccccc3n2)cc1` [E 19, (4-Trifluoromethoxy-phenyl)-[4-(3-trifluoromethyl-pyrazol-1-yl)-quinolin-2-yl]-amine], the melting point lay within 128 to 130 °C. Besides, the IC50 in series [2] came to 1 µM. Also, the IC50 in series [4] is 1 µM.

Consider `FC(F)(F)c1ccn(-c2cc(N3CCOCC3)nc3ccccc23)n1` [E 20, 2-Morpholin-4-yl-4-(3-trifluoromethyl-pyrazol-1-yl)-quinoline], for which the melting point was 118 to 120 °C.

On to `CNS(=O)(=O)c1ccc(Nc2cc(-n3ccc(C(F)(F)F)n3)c3ccccc3n2)cc1` [E 21, N-Methyl-4-[4-(3-trifluoromethyl-pyrazol-1-yl)-quinolin-2-ylamino]-benzenesulfonamide], for which the melting point lay in the range of 220 to 222 °C. The IC50 in series [2] worked out at 0.43 µM. The IC50 in series [4] was 0.61 µM.

As for `CNC(=O)c1ccc(Nc2cc(-n3ccc(C(F)(F)F)n3)c3ccccc3n2)cc1` [E 22, N-Methyl-4-[4-(3-trifluoromethyl-pyrazol-1-yl)-quinolin-2-ylamino]-benzamide], the melting point is 250 to 252 °C. Besides, in series [2], the IC50 stood at 0.75 µM. Besides, the IC50 in series [4] was 2.1 µM.

Regarding `CS(=O)(=O)c1ccc(Nc2cc(-n3ccc(C(F)(F)F)n3)c3ccccc3n2)cc1` [E 23, (4-Methanesulfonyl-phenyl)-[4-(3-trifluoromethyl-pyrazol-1-yl)-quinolin-2-yl]-amine], the melting point fell in the range of 194 to 196 °C. Besides, the IC50 in series [2] amounted to 9 µM. In addition, the IC50 in series [4] was 8.1 µM.
